Bridges are numbered along the chain shown (N, C = ends). Where no end group is shown, it is not given here. [ ]: non-standard residue; d: D form. R8 = C=CCCCCCC[C@@](C)(N)C(=O)O; S5 = C=CCCC[C@](C)(N)C(=O)O

These results are taken from US10087234B2, “Mimetic peptides” (LES HOPITAUX UNIVERSITAIRES DE GENEVE, priority 2012, dated 2018).

The nature of data set [1]: CD spectroscopy to determine helical content. The format is physicochemical. To be noted: troughs at 208 and 222 nm, in comparison to non-stapled control peptide F3. The protocol: Circular dichroism (CD) spectra from 185 to 240 nm were collected on a Jasco J-815 spectropolarimeter at 20° C. A typical sample was prepared by dissolving lyophilized peptide in 25% trifluoroethanol in water to obtain a concentration of 2 mM, then diluting this solution 20-fold in water and loading in a quartz cuvette (0.2 cm path length). Baseline CD spectra for 1.25% TFE in water was subtracted from the experimental spectra. Data were normalized by calculating the mean residue ellipticity at wavelength 222 nm, (θ)mrw, λ.

Data set [2] has as its system Human monocyte-derived macrophages (HMDMs). Nature of the data set: Anti-ApoA-I IgG-related pro-inflammatory response (TNF-α production). The format is cell-based. The procedure:
Human monocyte-derived macrophages (HMDMs) were obtained by treating human monocytes with interferon (IFN)-γ for 24 hours as previously described (Pagano et al, 2012, J Intern Med). HMDMs were then stimulated in 96-well trays for 24 h with increasing concentrations (5-40 μg/mL) of either polyclonal anti-human ApoA-I (Academy Bio-Medical Company, Houston, Tex., USA) or control antibody (Meridian Life Science, Saco, Me., USA), with IgG from pool+ or pool− (500 μg/mL). In this model, LPS-free anti-ApoA-I IgG has been show to promote the production of TNF-α and IL-6 in a dose dependent manner, with an optimal stimulation at 40 μg/ml (Pagano et al, 2012, J Intern Med).
For competition inhibition experiments, synthetic peptides were co-incubated with 40 μg/ml polyclonal anti-ApoA-I IgG for 2 h at room temperature prior to addition to HMDMs in 96-well plates, and followed by the assessment of IL-6 and TNF-α levels in cell supernatants using Luminex MAP™ Technology. Experiments were performed with blood from three different donors.

Data set [3] has as its system Neonatal rat ventricular cardiomyocytes (NRVC). Put plainly: Anti-ApoA-I IgG-related chronotropic response (beating frequency). Format: cell-based. The source says: Neonatal rat ventricular cardiomyocytes (NRVC) were isolated from ventricles of 1-2 day-old Wistar rats by digestion with low trypsin-EDTA and type 2 collagenase. Animals were killed by decapitation without any anesthesia, analgesia, or administration of neuromuscular blocking agents, in conformity with the Guide for the Care and Use of Laboratory Animals published by the NIH (publication 85-23) and with the authorization (1012/3134/0-R) of the local county veterinary office. Freshly isolated cells were seeded in plastic flasks to allow selective adhesion of cardiac fibroblasts. Thereafter cardiomyocytes were decanted from the flasks and distributed into laminin-coated 90 mm petri dishes.
After 1-2 days' culture, cells were incubated at time intervals with the appropriate concentration of monoclonal anti-ApoA-I IgG (Abcam, Nottingham, UK) or vehicle in serum-free DMEM. The beating frequency of spontaneously contracting small cell monolayers was determined immediately at the end of the pre-incubation period (t=0) and at different times after the addition of various substances. Frequency determinations were performed by a technician (unaware of the experimental conditions) using a light microscope to count the number of contractions per time unit in three different locations of the dish. The regularity of the cell contractions has been previously assessed by monitoring cytosolic-free calcium fluctuations with fluorescent calcium probes (Maturana et al, 2009, Endocrinology 150:3726-3734). […] Competition inhibition experiments with synthetic peptides were performed using the same experimental conditions. Synthetic peptides were co-incubated with 10 μg/ml monoclonal anti-ApoA-I (Abcam, Nottingham, UK) for 2 h at room temperature, before being added to NRVC in dishes, with beating frequency determined as described above.

The test system of data set [4] is anti-ApoA-I antibodies. Nature of the data set: Competition ELISA on plates coated with intact ApoA-I. The format is binding, human. The protocol:
Competition ELISA experiments using selected synthetic peptides were also carried out. Synthetic peptides (dissolved in PBS with 2% bovine serum albumin (BSA) at different concentrations were co-incubated with patient sera containing high levels of anti-ApoA-I IgG for 2 h at room temperature, before being added to the wells coated with purified, human-derived delipidated ApoA-I as described above, prior to development of the assay as described above.
In competition ELISA assays, serum from a patient known to be positive for anti-ApoA-I antibodies was preincubated with peptide F3L1 at different concentrations as indicated in FIG. 3 and then added to ELISA plates coated with intact ApoA-I, with the subsequent assay steps carried out according to the standard protocol.

Data set [5] concerns anti-ApoA-I antibodies. Put plainly: ELISA immunoreactivity of ApoA-I digestion fragments (epitope identification). As to conditions: sera from 3 patients with high and 3 with low autoantibody titers. The format is binding, human. The protocol: To identify specific endogenous epitopes of ApoA-I, the purified ApoA-I was submitted to enzymatic digestion, hydrolyzing the protein specifically at the carboxyl side of lysine or at the carboxylic side of arginine, followed by peptide separation and purification by reversed phase-high performance liquid chromatography and peptide identification by mass spectrometry. The immunoreactivity to the digested protein and each fraction were tested by ELISA using serum samples from 3 patients with high titers and serum samples from 3 patients with low titers of autoantibodies.
For ApoA-I digested at lysine residues, the enzyme Endoproteinase Lys-C(Roche Applied Science) was used (amount of enzyme 1:50 was 1/50 of protein by weight, incubation for 18 h at 37° C., pH 8.5). ApoA-I digestion with Lys-C allowed identification of fractions 70 and 71 (FIG. 8) containing a previously unreported immunoreactive peptide epitope of amino acid sequence corresponding to amino acid residues 141-182 relative to mature amino acid sequence of ApoA-I of SEQ ID NO: 1, comprising the region derived from helix D of SEQ ID NO: 5 with a deletion of the last 2 amino acids of SEQ ID NO: 5. The amino acid sequence of this epitope is SEQ ID NO: 21.
In order to generate peptide fragments cleaved at arginine residues the conventional way would to use the enzyme ArgC. However, ArgC enzyme has a recognized lack of specificity, generating tryptic peptides, which abolished the immunoreactivity. […] This approach allowed identification of fractions 74 and 80 (FIG. 9) containing another immunoreactive peptide epitope of amino acid sequence corresponding to amino acid residues 216-243 relative to mature amino acid sequence of ApoA-I of SEQ ID NO: 1, comprising the region 1 derived from helix F of SEQ ID NO: 8. The amino acid sequence of this epitope is SEQ ID NO: 25.

The mark [6] stands for this setting: serum from 3 anti-ApoA-I positive patients, FIG. 5.

Take “Ac-GLLPVLESFKVSFLSALEXaaYTKXaaLNT-NH2 (Ac-GLLPVLESFKVSFLSALEEYTKKLNT-NH2; lactam 19-23; SMILES CC(=O)NCC(=O)N[C@@H](CC(C)C)C(=O)N[C@@H](CC(C)C)C(=O)N1CCC[C@H]1C(=O)N[C@H](C(=O)N[C@@H](CC(C)C)C(=O)N[C@@H](CCC(=O)O)C(=O)N[C@@H](CO)C(=O)N[C@@H](Cc1ccccc1)C(=O)N[C@@H](CCCCN)C(=O)N[C@H](C(=O)N[C@@H](CO)C(=O)N[C@@H](Cc1ccccc1)C(=O)N[C@@H](CC(C)C)C(=O)N[C@@H](CO)C(=O)N[C@@H](C)C(=O)N[C@@H](CC(C)C)C(=O)N[C@@H](CCC(=O)O)C(=O)N[C@H]1CCC(=O)NCCCC[C@@H](C(=O)N[C@@H](CC(C)C)C(=O)N[C@@H](CC(N)=O)C(=O)N[C@H](C(N)=O)[C@@H](C)O)NC(=O)[C@H](CCCCN)NC(=O)[C@H]([C@@H](C)O)NC(=O)[C@H](Cc2ccc(O)cc2)NC1=O)C(C)C)C(C)C) [F3L1]”: the alpha-helical content entry in data set [1] is “increased alpha-helical content”. In data set [2] (polyclonal anti-ApoA-I IgG 40 μg/ml pre-incubated with peptide 2 h, FIG. 6A), the “effect on TNF-α production induced by anti-ApoA-I IgG” value is recorded as “abrogated”. In addition, the “effect on TNF-α production induced by pool of IgG from anti-ApoA-I positive patients” value in data set [2] (pooled patient IgG pre-incubated with peptide, FIG. 6B) is reported as “same effect”. For the same substance, the “effect on anti-ApoA-I IgG related chronotropic response” value in data set [3] (antibody pre-incubated with peptide 75 μg/ml for 2 h, FIG. 7) is recorded as “fully abrogated”. In addition, the “basal frequency contraction rate” value in data set [3] (peptide added alone) is “did not alter”. Moreover, the “contraction rate in the presence of 10 nM aldosterone” value in data set [3] (peptide added alone, 10 nM aldosterone) is “did not alter”. For the same substance, the “inhibition of binding of patient serum IgG to intact ApoA-I” value (“inhibition” below) is recorded as “competes effectively” in the data set with anti-ApoA-I antibodies [4] (setting [6]) and “capable of competitively inhibiting” in the data set on anti-ApoA-I antibodies [4] (serum from one anti-ApoA-I positive patient, FIG. 4). For the substance “Ac-GLLPVLESFKVSFLSXaaLEEYTKXaaLNT-NH2 (Ac-GLLPVLESFKVSFLS[R8]LEEYTK[S5]LNT-NH2; staple 16-23) [F3S2A]”, the alpha-helical content entry in data set [1] is recorded as “increased alpha-helical content”. As for “Ac-KELYLLKFTVESKVGSTELPLNFSLA-NH2 [scrambled F3, reference compound]”, the “inhibition” value with anti-ApoA-I antibodies [4] (setting [6]) was “absence of dose-dependent inhibition”. For the substance “Ac-VLESFKVSFLSALEXaaYTKXaaLNT-NH2 (Ac-VLESFKVSFLSALEEYTKKLNT-NH2; lactam 15-19; SMILES CC(=O)N[C@H](C(=O)N[C@@H](CC(C)C)C(=O)N[C@@H](CCC(=O)O)C(=O)N[C@@H](CO)C(=O)N[C@@H](Cc1ccccc1)C(=O)N[C@@H](CCCCN)C(=O)N[C@H](C(=O)N[C@@H](CO)C(=O)N[C@@H](Cc1ccccc1)C(=O)N[C@@H](CC(C)C)C(=O)N[C@@H](CO)C(=O)N[C@@H](C)C(=O)N[C@@H](CC(C)C)C(=O)N[C@@H](CCC(=O)O)C(=O)N[C@H]1CCC(=O)NCCCC[C@@H](C(=O)N[C@@H](CC(C)C)C(=O)N[C@@H](CC(N)=O)C(=O)N[C@H](C(N)=O)[C@@H](C)O)NC(=O)[C@H](CCCCN)NC(=O)[C@H]([C@@H](C)O)NC(=O)[C@H](Cc2ccc(O)cc2)NC1=O)C(C)C)C(C)C) [F4L1]”, in data set [1], the alpha-helical content entry was “increased alpha-helical content”. As to “Ac-VLESFKVSXaaLSALEEXaaTKKLNT-NH2 (Ac-VLESFKVS[R8]LSALEE[S5]TKKLNT-NH2; staple 9-16) [F4S2B]”, the alpha-helical content result in data set [1] is “increased alpha-helical content”. “EEMRDRARAHVDALRTHLAPYSDELRQRLAARLEALKEN (Region derived from Helix D of ApoA-I) [SEQ ID NO: 5]”: the “immunoreactivity to anti-ApoA-I antibodies” value (“immunoreactivity” below) in the data set on anti-ApoA-I antibodies [5] is listed as “more immunoreactive”.

For “GLLPVLESFKVSFLSALEEYTKKLNT (Ac-GLLPVLESFKVSFLSALEEYTKKLNT-NH2) [F3, reference compound]”, the “inhibition” value in the data set with anti-ApoA-I antibodies [4] (setting [6]) is “effect observed”. Take “GLLPVLESFKVSFLSALEEYTKKLNT (not fully specified (bridges)) [SEQ ID NO: 9, Region 2 derived from helix F]”: in the data set on anti-ApoA-I antibodies [5], the “immunoreactivity” value is “more immunoreactive”. Same read-out and setting: under “LSPLGEEMRDRARAHVDALRTHLAPYSDELRQRLAARLEALK (D2) [SEQ ID NO: 21]” stands “immunoreactive”; under “QGLLPVLESFKVSFLSALEEYTKKLNTQ (F5) [SEQ ID NO: 25]”, “immunoreactive”; under “VLESFKVSFLSALEEYTKKLNT (not fully specified (bridges)) [SEQ ID NO: 8, Region 1 derived from helix F]”, “more immunoreactive”. Take “amino acid residues 189-215 of mature ApoA-1: peptide corresponding to amino acid residues 189-215 of mature ApoA-1 of SEQ ID NO: 1, containing helix E (LAEYHAKATEHLSTLSEKAKPALEDLR; UniProt P02647 213-239, looked up, fragment)”: the “immunoreactivity” value in the data set on anti-ApoA-I antibodies [5] is “less immunoreactive”.
